In the NIST ThermoML archive (doi:10.1021/je201009c):
Numbers after ± are expanded uncertainties.

Assay: xn = mol fraction of the nth substance listed
Conditions: for surface tension liquid-gas: Capillary rise; for viscosity / mass density: 100.8 kPa, Liquid; for viscosity: Falling or rolling sphere viscometry; for mass density: Vibrating tube method

For `OCc1ccccc1` [benzenemethanol] + CCO, the surface tension liquid-gas (313.15 K, x2 = 0) was 37.2 ± 0.4 mN/m, the surface tension liquid-gas (313.15 K, x2 = 0.05) was 36.6 ± 0.4 mN/m and the surface tension liquid-gas (313.15 K, x2 = 0.1) was 35.9 ± 0.4 mN/m. It also gave a surface tension liquid-gas (313.15 K, x2 = 0.1504) of 35.3 ± 0.4 mN/m, a surface tension liquid-gas (313.15 K, x2 = 0.1999) of 34.6 ± 0.4 mN/m and a surface tension liquid-gas (313.15 K, x2 = 0.2502) of 33.9 ± 0.4 mN/m. The surface tension liquid-gas (313.15 K, x2 = 0.3003) was 33.2 ± 0.4 mN/m, the surface tension liquid-gas (313.15 K, x2 = 0.3499) was 32.4 ± 0.4 mN/m and the surface tension liquid-gas (313.15 K, x2 = 0.3998) was 31.6 ± 0.4 mN/m. For the same compound, the surface tension liquid-gas (313.15 K, x2 = 0.45) was 30.7 ± 0.4 mN/m, the surface tension liquid-gas (313.15 K, x2 = 0.5001) was 29.8 ± 0.4 mN/m and the surface tension liquid-gas (313.15 K, x2 = 0.55) was 28.9 ± 0.4 mN/m. It also gave a surface tension liquid-gas (313.15 K, x2 = 0.5999) of 27.9 ± 0.4 mN/m, a surface tension liquid-gas (313.15 K, x2 = 0.65) of 26.9 ± 0.4 mN/m and a surface tension liquid-gas (313.15 K, x2 = 0.6997) of 26 ± 0.4 mN/m. For the same compound, the surface tension liquid-gas (313.15 K, x2 = 0.75) was 25.1 ± 0.4 mN/m, the surface tension liquid-gas (313.15 K, x2 = 0.7999) was 24.2 ± 0.4 mN/m and the surface tension liquid-gas (313.15 K, x2 = 0.8496) was 23.3 ± 0.4 mN/m. The surface tension liquid-gas (313.15 K, x2 = 0.8998) was 22.4 ± 0.4 mN/m, the surface tension liquid-gas (313.15 K, x2 = 0.95) was 21.5 ± 0.4 mN/m and the viscosity (313.15 K, x2 = 0) was 3.335 ± 0.031 mPa·s. It also gave a viscosity (313.15 K, x2 = 0.05) of 3.171 ± 0.03 mPa·s, a viscosity (313.15 K, x2 = 0.1) of 3.002 ± 0.029 mPa·s and a viscosity (313.15 K, x2 = 0.1504) of 2.841 ± 0.028 mPa·s. For the same compound, the viscosity (313.15 K, x2 = 0.1999) was 2.688 ± 0.027 mPa·s, the viscosity (313.15 K, x2 = 0.2502) was 2.539 ± 0.026 mPa·s and the viscosity (313.15 K, x2 = 0.3003) was 2.389 ± 0.025 mPa·s. The viscosity (313.15 K, x2 = 0.3499) was 2.244 ± 0.024 mPa·s, the viscosity (313.15 K, x2 = 0.3998) was 2.101 ± 0.023 mPa·s and the viscosity (313.15 K, x2 = 0.45) was 1.955 ± 0.022 mPa·s. For the same compound, the viscosity (313.15 K, x2 = 0.5001) was 1.819 ± 0.021 mPa·s, the viscosity (313.15 K, x2 = 0.55) was 1.684 ± 0.021 mPa·s and the viscosity (313.15 K, x2 = 0.5999) was 1.561 ± 0.02 mPa·s. It also gave a viscosity (313.15 K, x2 = 0.65) of 1.441 ± 0.019 mPa·s, a viscosity (313.15 K, x2 = 0.6997) of 1.332 ± 0.019 mPa·s and a viscosity (313.15 K, x2 = 0.75) of 1.236 ± 0.019 mPa·s. The viscosity (313.15 K, x2 = 0.7999) was 1.146 ± 0.018 mPa·s, the viscosity (313.15 K, x2 = 0.8496) was 1.048 ± 0.018 mPa·s and the viscosity (313.15 K, x2 = 0.8998) was 0.972 ± 0.018 mPa·s. For the same compound, the viscosity (313.15 K, x2 = 0.95) was 0.899 ± 0.017 mPa·s, the mass density (313.15 K, x2 = 0) was 1029.61 ± 0.18 kg/m3 and the mass density (313.15 K, x2 = 0.05) was 1023.04 ± 0.18 kg/m3. For the same compound, the mass density (313.15 K, x2 = 0.1) was 1016.21 ± 0.18 kg/m3, the mass density (313.15 K, x2 = 0.1504) was 1008.86 ± 0.18 kg/m3 and the mass density (313.15 K, x2 = 0.1999) was 1001.16 ± 0.18 kg/m3. For the same compound, the mass density (313.15 K, x2 = 0.2502) was 992.96 ± 0.18 kg/m3, the mass density (313.15 K, x2 = 0.3003) was 984.28 ± 0.18 kg/m3 and the mass density (313.15 K, x2 = 0.3499) was 975.05 ± 0.19 kg/m3. It also gave a mass density (313.15 K, x2 = 0.3998) of 965.24 ± 0.19 kg/m3, a mass density (313.15 K, x2 = 0.45) of 954.84 ± 0.2 kg/m3 and a mass density (313.15 K, x2 = 0.5001) of 943.67 ± 0.21 kg/m3. It also gave a mass density (313.15 K, x2 = 0.55) of 931.78 ± 0.21 kg/m3, a mass density (313.15 K, x2 = 0.5999) of 919.04 ± 0.21 kg/m3 and a mass density (313.15 K, x2 = 0.65) of 905.41 ± 0.2 kg/m3. It also gave a mass density (313.15 K, x2 = 0.6997) of 890.69 ± 0.2 kg/m3, a mass density (313.15 K, x2 = 0.75) of 874.75 ± 0.2 kg/m3 and a mass density (313.15 K, x2 = 0.7999) of 857.51 ± 0.2 kg/m3. The mass density (313.15 K, x2 = 0.8496) was 838.83 ± 0.2 kg/m3, the mass density (313.15 K, x2 = 0.8998) was 818.48 ± 0.19 kg/m3 and the mass density (313.15 K, x2 = 0.95) was 796.32 ± 0.19 kg/m3. For the same compound, the surface tension liquid-gas (323.15 K, x2 = 0) was 36.3 ± 0.4 mN/m, the surface tension liquid-gas (323.15 K, x2 = 0.05) was 35.6 ± 0.4 mN/m and the surface tension liquid-gas (323.15 K, x2 = 0.1) was 34.9 ± 0.4 mN/m. It also gave a surface tension liquid-gas (323.15 K, x2 = 0.1504) of 34.2 ± 0.4 mN/m, a surface tension liquid-gas (323.15 K, x2 = 0.1999) of 33.5 ± 0.4 mN/m and a surface tension liquid-gas (323.15 K, x2 = 0.2502) of 32.8 ± 0.4 mN/m. It also gave a surface tension liquid-gas (323.15 K, x2 = 0.3003) of 32.1 ± 0.4 mN/m, a surface tension liquid-gas (323.15 K, x2 = 0.3499) of 31.3 ± 0.4 mN/m and a surface tension liquid-gas (323.15 K, x2 = 0.3998) of 30.5 ± 0.4 mN/m. The surface tension liquid-gas (323.15 K, x2 = 0.45) was 29.6 ± 0.4 mN/m, the surface tension liquid-gas (323.15 K, x2 = 0.5001) was 28.7 ± 0.4 mN/m and the surface tension liquid-gas (323.15 K, x2 = 0.55) was 27.8 ± 0.4 mN/m. The surface tension liquid-gas (323.15 K, x2 = 0.5999) was 26.8 ± 0.4 mN/m, the surface tension liquid-gas (323.15 K, x2 = 0.65) was 25.8 ± 0.4 mN/m and the surface tension liquid-gas (323.15 K, x2 = 0.6997) was 24.8 ± 0.4 mN/m. For the same compound, the surface tension liquid-gas (323.15 K, x2 = 0.75) was 23.9 ± 0.4 mN/m, the surface tension liquid-gas (323.15 K, x2 = 0.7999) was 23 ± 0.4 mN/m and the surface tension liquid-gas (323.15 K, x2 = 0.8496) was 22.1 ± 0.4 mN/m. It also gave a surface tension liquid-gas (323.15 K, x2 = 0.8998) of 21.2 ± 0.4 mN/m, a surface tension liquid-gas (323.15 K, x2 = 0.95) of 20.3 ± 0.4 mN/m and a viscosity (323.15 K, x2 = 0) of 2.545 ± 0.026 mPa·s. For the same compound, the viscosity (323.15 K, x2 = 0.05) was 2.439 ± 0.025 mPa·s, the viscosity (323.15 K, x2 = 0.1) was 2.337 ± 0.025 mPa·s and the viscosity (323.15 K, x2 = 0.1504) was 2.238 ± 0.024 mPa·s. It also gave a viscosity (323.15 K, x2 = 0.1999) of 2.142 ± 0.023 mPa·s, a viscosity (323.15 K, x2 = 0.2502) of 2.041 ± 0.023 mPa·s and a viscosity (323.15 K, x2 = 0.3003) of 1.941 ± 0.022 mPa·s. For the same compound, the viscosity (323.15 K, x2 = 0.3499) was 1.844 ± 0.021 mPa·s, the viscosity (323.15 K, x2 = 0.3998) was 1.746 ± 0.021 mPa·s and the viscosity (323.15 K, x2 = 0.45) was 1.649 ± 0.02 mPa·s. For the same compound, the viscosity (323.15 K, x2 = 0.5001) was 1.556 ± 0.02 mPa·s, the viscosity (323.15 K, x2 = 0.55) was 1.462 ± 0.019 mPa·s and the viscosity (323.15 K, x2 = 0.5999) was 1.368 ± 0.019 mPa·s. It also gave a viscosity (323.15 K, x2 = 0.65) of 1.279 ± 0.019 mPa·s, a viscosity (323.15 K, x2 = 0.6997) of 1.189 ± 0.018 mPa·s and a viscosity (323.15 K, x2 = 0.75) of 1.105 ± 0.018 mPa·s. For the same compound, the viscosity (323.15 K, x2 = 0.7999) was 1.022 ± 0.018 mPa·s, the viscosity (323.15 K, x2 = 0.8496) was 0.937 ± 0.017 mPa·s and the viscosity (323.15 K, x2 = 0.8998) was 0.854 ± 0.017 mPa·s. For the same compound, the viscosity (323.15 K, x2 = 0.95) was 0.774 ± 0.017 mPa·s, the mass density (323.15 K, x2 = 0) was 1021.5 ± 0.18 kg/m3 and the mass density (323.15 K, x2 = 0.05) was 1014.86 ± 0.18 kg/m3. The mass density (323.15 K, x2 = 0.1) was 1007.98 ± 0.18 kg/m3, the mass density (323.15 K, x2 = 0.1504) was 1000.57 ± 0.18 kg/m3 and the mass density (323.15 K, x2 = 0.1999) was 992.89 ± 0.18 kg/m3. For the same compound, the mass density (323.15 K, x2 = 0.2502) was 984.67 ± 0.18 kg/m3, the mass density (323.15 K, x2 = 0.3003) was 975.99 ± 0.18 kg/m3 and the mass density (323.15 K, x2 = 0.3499) was 966.71 ± 0.19 kg/m3. It also gave a mass density (323.15 K, x2 = 0.3998) of 956.84 ± 0.19 kg/m3, a mass density (323.15 K, x2 = 0.45) of 946.37 ± 0.2 kg/m3 and a mass density (323.15 K, x2 = 0.5001) of 935.23 ± 0.21 kg/m3. For the same compound, the mass density (323.15 K, x2 = 0.55) was 923.28 ± 0.21 kg/m3, the mass density (323.15 K, x2 = 0.5999) was 910.48 ± 0.21 kg/m3 and the mass density (323.15 K, x2 = 0.65) was 896.61 ± 0.21 kg/m3. It also gave a mass density (323.15 K, x2 = 0.6997) of 881.89 ± 0.2 kg/m3, a mass density (323.15 K, x2 = 0.75) of 865.88 ± 0.2 kg/m3 and a mass density (323.15 K, x2 = 0.7999) of 848.64 ± 0.2 kg/m3. For the same compound, the mass density (323.15 K, x2 = 0.8496) was 830.07 ± 0.2 kg/m3, the mass density (323.15 K, x2 = 0.8998) was 809.62 ± 0.2 kg/m3 and the mass density (323.15 K, x2 = 0.95) was 787.41 ± 0.2 kg/m3.
